≈ marks a conversion by molar mass, not a printed value.
Assays:
[1] = tested on: Staphyloccocus epidermidis (ATCC 35984) biofilm; test: Biofilm formation (crystal violet, 24-well plate); type: cell-based, Staphylococcus epidermidis; details: 38 μM; 20 hours; FIG. 10B
Protocol: Staphyloccocus aureus (ATCC 25904) or Staphyloccocus epidermidis (ATCC 35984) were grown overnight in TSB medium, before being diluted 100 fold in fresh TSB, and incubated aerobically at 37° C. until bacteria culture reached an OD600 of 0.6 (corresponding to approximately 1-3×10^8 CFU/ml). Bacteria cultures were then diluted to 1×10^4 CFU/ml in fresh TSB. Aliquots of 800 μl diluted bacteria suspensions were distributed in each well of a 24-well plate. Bacteria were allowed to adhere for 4 hours under static conditions at 37° C. After removing the media, wells were rinsed 2 times with PBS to eliminate planktonic bacteria and re-filled with TSB supplemented with 0.5% glucose containing Fluometacyl at desired concentration or DMSO alone (Ctrl). The 24-well plates were incubated at 37° C. for 20 hours. Wells were then washed and stained with 0.5% (w/v) crystal violet for 30 minutes and rinsed with PBS 4 times. The dye was solubilized by adding 20% acetic acid (v/v in water) before reading absorbance at 595 nm. FIG. 10A and FIG. 10B show Fluometacyl effect on S. aureus and S. epidermidis biofilm formation respectively at all concentrations tested.

[2] = tested on: S. epidermidis mature biofilm; test: Mature biofilm (24-hour) treatment, viable count; type: cell-based, Staphylococcus epidermidis; details: 50 μg/ml
Source text: In another experiment we let adhere 0.5×10^8 CFU/ml S. epidermidis cells for 4 hr and let the biofilm form for additional 24 hr in presence of 0.25% glucose, at this point we treated the biofilm with several concentrations of Triafluocyl for 24 hr in TSB with 0.25% glucose and determined the viable count (FIG. 7) as well as the percentage of live cells using the BacLight bacterial viability kit (Molecular Probes). For biofilm analysis, we first washed the biofilm to eliminate all planktonic bacteria and then the biofilm was detached mechanically using a scraper. To assure that the aggregates from the biofilm were completely dissociated, the suspension of cells was passed through a needle (0.5×16 mm) and a dilution was plated on TSA plates.

[3] = tested on: S. agalactiae (ATCC 12386); test: MBC and MDK99.9 determination (CFU counting); type: cell-based, Streptococcus agalactiae
Protocol: (§1) Further experiments were conducted using S. agalactiae (ATCC 12386), as clinically relevant Gram-positive bacterial strains in order to determine the Minimal Inhibitory Concentration (MIC) which is the minimal concentration required to prevent bacterial growth; the Minimal Bactericidal Concentration (MBC) which determines the lowest concentration at which an antimicrobial agent kill a particular microorganism and a Minimum Duration for killing 99.9% bacteria (MDK99.9) which is a tolerance metric according to the EUCAST.
MBC and MDK99.9 determination: A single colony selected from S. agalactiae (ATCC 12386) is resuspended and cultured in the appropriate medium (TSB, or BHI) overnight (O/N) in aerobic conditions (37° C. with 220 rpm shaking), next day a 1:100 inoculum in the appropriate medium was incubated in aerobic conditions for 2 h. The culture is then challenged with triafluocyl at MIC concentration or higher concentrations. Bacterial growth was measured after different time intervals by counting the colony-forming units after plating appropriate culture dilutions on BHI agar plates. […] And the real time needed is defined as the MDK99.9. MBC for Triafluocyl against S. agalactiae (ATCC 12386) was 40 μg/ml. MDK99.9 for Triafluocyl against S. agalactiae (ATCC 12386) was 1 hour.

S. epidermidis [4] = test: Growth of low-density inoculum (OD600, 4 hr); type: cell-based, Staphylococcus epidermidis; details: inoculum 0.08×10^6 CFU/ml
Source text: Moreover, we have tested the effect of Triafluocyl on a low-density inoculum, 0.08×10^6 CFU/ml, from a culture of S. epidermidis in logarithmic phase.

E. faecalis ATCC 29212 = test: MIC determination (EUCAST, Mueller-Hinton broth); type: cell-based; details: Enterococcus faecalis, ATCC29212
Protocol: as §1, with “different strains of E. faecalis,” for “S. agalactiae (ATCC 12386),”, “strains: E. faecalis vancomycin-resistant (VRE) ATCC BAA-2365, and E. faecalis ATCC 29212” for “strains”
MIC determination: A single colony selected from the different strains of E. faecalis is resuspended and cultured in the appropriate medium overnight (O/N) in aerobic conditions (37° C. with 220 rpm shaking), next day a 1:100 inoculum in Mueller-Hinton broth (MHB) was incubated in aerobic conditions for 3 hr (OD=0.08-0.1) and an inoculum of 1:300 dilution, corresponding to 3×10^5 CFU/ml, was incubated in presence or absence of different concentrations of Triafluocyl in 1% DMSO. After O/N growth the OD of each culture was measured at 600 nm in a spectrophotometer (OD600). The MIC represents the concentration at which there is no visible growth of bacteria, i.e. ΔOD at 600 nm equal to zero (blank is the medium alone). […]

S. epidermidis [5] = test: Time-kill study in logarithmic phase; type: cell-based, Staphylococcus epidermidis
Protocol: To evaluate Triafluocyl antibacterial effect we have tested S. epidermidis liquid growth in the presence of different Triafluocyl concentrations in logarithmic phase. […] A 1:100 inoculum in 50 ml TSB of an O/N culture of S. epidermidis was cultured for 3 hr up to its logarithmic phase (OD600=0.26 and ≈3×10^8 CFU/ml). Bacteria were split in several tubes containing different concentrations of DMSO as vehicle alone or in combination with Triafluocyl in TSB and grown for 100 min at 37° C. with 220 rpm shaking, the OD600 was measured every 20 min.

MIC (E. faecalis ATCC 29212) [µg/mL]	Compound	S. epidermidis biofilm formation [1]	number of viable cells in the biofilm ([2]; 24 hr treatment of 24-hour biofilm, 0.25% glucose)	reduction of viable cells in the biofilm ([2]; 24 hr treatment, versus control) [log]	MDK 99.9 Time (h) needed to kill 99.9% of the started inoculum [3] [h]	MBC ([3]; Streptococcus agalactiae, ATCC12386, cut-off 99.9% reduction in CFU) [µg/mL]	decrease of OD600 compared to growth in absence of Triafluocyl (S. epidermidis [4]; 5 μg/ml) [%]	growth (OD600) of low-density inoculum (S. epidermidis [4]; 10 μg/ml)	growth (OD600) of low-density inoculum (S. epidermidis [4]; 20 μg/ml)	S. epidermidis growth (OD600) (S. epidermidis [5]; 50 μg/ml)	number of viable cells (S. epidermidis [5]; 50 μg/ml, at 80 min)	S. epidermidis growth (OD600) (S. epidermidis [5]; between 10 μg/ml and 20 μg/ml, compared to DMSO (0.25%), 100 min)
	CCCSc1nc(N[C@@H]2C[C@H]2c2ccc(F)c(F)c2)c2nnn([C@@H]3C[C@H](O)[C@@H](O)[C@H]3O)c2n1 [Fluometacyl, (1S,2R,3S,4R)-4-[7-[[(1R,2S)-2-(3,4-Difluorophenyl)cyclopropyl]amino]-5-(propylthio)-3H-1,2,3-triazolo[4,5-d]pyrimidin-3-yl]-1,2,3-cyclopentanetriol]	could not form any biofilm										
40 (≈ 76.5 µM)	CCCSc1nc(N[C@@H]2C[C@H]2c2ccc(F)c(F)c2)c2nnn([C@@H]3C[C@H](OCCO)[C@@H](O)[C@H]3O)c2n1 [Triafluocyl, (1S,2S,3R,5S)-3-[7-[(1R,2S)-2-(3,4-difluorophenyl)cyclopropylamino]-5-(propylthio)-3H-[1,2,3]-triazolo[4,5-d]pyrimidin-3-yl]-5-(2-hydroxyethoxy)-1,2-cyclopentanediol]		1.5×10^5 CFU/ml	~3	1	40 (≈ 76.5 µM)	50	inhibited growth	inhibited growth	slight bacteriostatic activity	3×10^8 CFU/ml	dose-dependent inhibition

— US10905691B2, “Use of triazolo(4,5-d)pyrimidine derivatives for prevention and treatment of bacterial infection” (Universite de Liege, priority 2016, dated 2021)
